Paper PMC12069901 (Acta Pharmaceutica Sinica. B, 2025)
pKd: −log10 of the molar value. Each block holds one molecule with its values, some of them ahead of it.

Key:
[1] = tested on: STAT3; experiment: STAT3 dimerization assay and immunoprecipitation; format: cell-based, rat; conditions: PDGF-BB-induced VSMCs; CAB 3–5 μmol/L, AG490 20 μmol/L, stattic 1 μmol/L
[2] = tested on: His-STAT3; experiment: His-tag pull-down assay with CAB-conjugated Sepharose 6B; format: binding, Mus musculus
[3] = tested on: rat Ciapin1 promoter; experiment: Ciapin1 promoter luciferase assay; format: cell-based; conditions: PDGF-BB 6 h
[4] = tested on: CIAPIN1; experiment: CIAPIN1 nuclear accumulation; format: cell-based, rat; conditions: PDGF-BB-induced VSMCs, 24 h
[5] = tested on: JAK2; experiment: Western blot, JAK2 expression and phosphorylation in PDGF-BB-induced VSMCs; format: cell-based, rat; conditions: for PDGF-BB-induced JAK2 expression: 24 h; for PDGF-BB-induced JAK2 expression / JAK2 phosphorylation: CAB 1–5 μmol/L, stattic 1 μmol/L; for JAK2 phosphorylation: PDGF-BB 24 h
[6] = tested on: MMP9; experiment: Western blot, MMP9 expression; format: cell-based, rat; conditions: 1–5 μmol/L, 24 h
[7] = tested on: VSMCs; experiment: Annexin V/PI apoptosis detection assay; format: cell-based, rat; conditions: 5 μmol/L, 26 h, compared with control
[8] = tested on: AKT; experiment: Western blot, AKT phosphorylation in PDGF-BB-induced VSMCs; format: cell-based, rat; conditions: 1–5 μmol/L, PDGF-BB 15 min
[9] = tested on: Ciapin1 promoter (STAT3-RE1); experiment: ChIP-PCR assay, STAT3 binding to Ciapin1 promoter; format: cell-based, rat; conditions: CAB 2 h, then PDGF-BB 6 h
[10] = tested on: PDGF-BB-induced VSMCs; experiment: Cell cycle progression analysis; format: cell-based, rat; conditions: CAB-treated versus PDGF-BB-induced VSMCs, 24 h
[11] = tested on: VSMCs; experiment: MTT cytotoxicity assay in VSMCs; format: cell-based, rat; conditions: 5 μmol/L, 26 h
[12] = tested on: cyclin D1; experiment: Western blot, cyclin D1 expression; format: cell-based, rat; conditions: 1–5 μmol/L, 24 h
[13] = tested on: cyclin E1; experiment: Western blot, cyclin E1 expression; format: cell-based, rat; conditions: 1–5 μmol/L, 24 h
[14] = tested on: SPP1; experiment: Western blot, SPP1 expression in PDGF-BB-induced VSMCs; format: cell-based, rat; conditions: 24 h; CAB 1–5 μmol/L, stattic 1 μmol/L
[15] = tested on: SRC; experiment: Western blot, SRC phosphorylation in PDGF-BB-induced VSMCs; format: cell-based, rat; conditions: 5 μmol/L, PDGF-BB 15 min
[16] = tested on: p38; experiment: Western blot, p38 phosphorylation in PDGF-BB-induced VSMCs; format: cell-based, rat; conditions: 1–5 μmol/L, PDGF-BB 15 min
[17] = tested on: CDK4; experiment: Western blot, CDK4 expression; format: cell-based, rat; conditions: 1–5 μmol/L, 24 h
[18] = tested on: CDKN1B; experiment: Western blot, CDKN1B expression in PDGF-BB-induced VSMCs; format: cell-based, rat; conditions: 24 h, CAB 1–5 μmol/L, stattic 1 μmol/L
[19] = tested on: ERK1/2; experiment: Western blot, ERK1/2 phosphorylation in PDGF-BB-induced VSMCs; format: cell-based, rat; conditions: 1–5 μmol/L, PDGF-BB 15 min
[20] = tested on: PCNA; experiment: Western blot, PCNA expression; format: cell-based, rat; conditions: 1–5 μmol/L, 24 h
[21] = tested on: CIAPIN1; experiment: Western blot, CIAPIN1 expression in PDGF-BB-induced VSMCs; format: cell-based, rat; conditions: 24 h; CAB 1–5 μmol/L, stattic 1 μmol/L
[22] = tested on: CDK2; experiment: Western blot, CDK2 expression; format: cell-based, rat; conditions: 1–5 μmol/L, 24 h
[23] = tested on: PDGFR-β; experiment: Western blot, PDGFR-β phosphorylation in PDGF-BB-induced VSMCs; format: cell-based, rat; conditions: 1–5 μmol/L, PDGF-BB 15 min
[24] = tested on: MMP9; experiment: Gelatin zymography, MMP9 activity; format: cell-based, rat; conditions: 1–5 μmol/L, PDGF-BB 24 h
[25] = tested on: STAT3; experiment: STAT3 dual-luciferase reporter assay; format: cell-based, rat; conditions: PDGF-BB 6 h
[26] = tested on: STAT3; experiment: Western blot, STAT3 phosphorylation in PDGF-BB-induced VSMCs; format: cell-based, rat; conditions: for STAT3 phosphorylation: PDGF-BB 24 h, CAB 1–5 μmol/L, stattic 1 μmol/L
[27] = tested on: phospho-pRb (p-pRb); experiment: Western blot, phospho-pRb; format: cell-based, rat; conditions: 1–5 μmol/L, 24 h
[28] = format: in vivo, Sprague–Dawley rats
[29] = tested on: STAT3; experiment: STAT3 nuclear translocation; format: cell-based, rat; conditions: PDGF-BB 15 min
[30] = tested on: rat carotid arteries; experiment: Balloon injury-induced neointima formation in rat carotid artery; format: in vivo, Sprague–Dawley rats; conditions: 20 mg/kg orally daily, 14 days
[31] = tested on: KLF4; experiment: Western blot, KLF4 expression in PDGF-BB-induced VSMCs; format: cell-based, rat; conditions: 24 h; CAB 1–5 μmol/L, stattic 1 μmol/L
[32] = target: STAT3 protein (amino acids 127–688) (Homo sapiens, UniProt P40763); experiment: Surface plasmon resonance; format: binding; conditions: immobilized STAT3 (127–688 aa), 25 °C
[33] = tested on: PDGF-BB-induced VSMCs; experiment: MTT assay, PDGF-BB-induced VSMC proliferation; format: cell-based, rat; conditions: 5 μmol/L for 2 h, then PDGF-BB 25 ng/mL for 24 h
[34] = rat serum, after 2 weeks of CAB administration

STAT3 protein (amino acids 127–688), sequence (P40763 127-688): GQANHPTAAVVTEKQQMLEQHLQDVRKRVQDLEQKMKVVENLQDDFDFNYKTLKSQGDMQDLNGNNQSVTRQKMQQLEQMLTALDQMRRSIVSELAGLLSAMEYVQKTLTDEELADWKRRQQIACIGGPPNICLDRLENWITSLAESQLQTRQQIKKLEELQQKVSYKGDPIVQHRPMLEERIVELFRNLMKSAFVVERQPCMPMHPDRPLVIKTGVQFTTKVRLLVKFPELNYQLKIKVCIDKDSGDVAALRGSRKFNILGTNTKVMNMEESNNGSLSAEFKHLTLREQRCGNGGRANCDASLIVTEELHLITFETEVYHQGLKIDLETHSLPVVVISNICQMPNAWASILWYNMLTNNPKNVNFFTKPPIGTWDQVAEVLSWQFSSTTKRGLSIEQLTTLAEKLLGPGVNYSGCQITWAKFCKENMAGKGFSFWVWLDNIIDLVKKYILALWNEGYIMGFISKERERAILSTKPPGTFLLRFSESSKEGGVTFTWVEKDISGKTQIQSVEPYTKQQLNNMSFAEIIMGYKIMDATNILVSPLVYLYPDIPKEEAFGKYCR

SMILES: N#C/C(=C/c1ccc(O)c(O)c1)C(=O)NCc1ccccc1 [AG490]
STAT3 dimerization [1]: inhibitory effect

SMILES: Nc1ccc(C(=O)Oc2ccc3[nH]c4ccccc4c3c2)cc1 [CAB, 9H-Carbazol-3-yl 4-aminobenzoate]
binding to STAT3 with mutated SH2 residues ([2]; Ile59, Arg609, and Glu612 mutated, compared to full-length): did not bind to STAT3 strongly
pull-down of full-length STAT3 by CAB-conjugated beads ([2]; full-length His-STAT3): successfully pulled down
pull-down of STAT3 fragments lacking SH2 by CAB-conjugated beads ([2]; ΔSH2): did not pull down
PDGF-BB-induced CIAPIN1 luciferase expression [3]: inhibited
CIAPIN1 nuclear accumulation [4]: significantly reduced
PDGF-BB-induced JAK2 phosphorylation ([5]; 5 μmol/L, PDGF-BB 15 min): did not inhibit
PDGF-BB-induced JAK2 expression [5]: significantly inhibited
JAK2 phosphorylation [5]: attenuated
PDGF-BB-induced MMP9 expression [6]: significantly inhibited
cell apoptosis induction [7]: no signs of cell apoptosis induction
PDGF-BB-stimulated AKT phosphorylation [8]: did not affect
binding of STAT3 to the Ciapin1 promoter region (protein/DNA binding) [9]: inhibited
G0/G1 phase proportion [10]: increase
cytotoxic effects in VSMCs [11]: did not induce cytotoxic effects
PDGF-BB-induced cyclin D1 expression [12]: significantly inhibited
PDGF-BB-induced cyclin E1 expression [13]: significantly inhibited
PDGF-BB-induced expression of SPP1 [14]: decreased
PDGF-BB-induced SRC phosphorylation [15]: did not inhibit
PDGF-BB-stimulated p38 phosphorylation [16]: did not affect
PDGF-BB-induced CDK4 expression [17]: significantly inhibited
CDKN1B expression [18]: dose-dependently restored
PDGF-BB-stimulated ERK1/2 phosphorylation [19]: did not affect
PDGF-BB-induced PCNA expression [20]: significantly inhibited
PDGF-BB-induced CIAPIN1 expression [21]: significantly inhibited
PDGF-BB-induced CDK2 expression [22]: significantly inhibited
PDGF-BB-stimulated PDGFR-β phosphorylation [23]: did not affect
MMP9 proteolytic activity [24]: significantly inhibited
PDGF-BB-induced STAT3 DNA binding activity (luciferase reporter) [25]: inhibited
PDGF-BB-induced STAT3 tyrosine (Tyr) 705 phosphorylation ([26]; 1–5 μmol/L, PDGF-BB 15 min): significantly inhibited
STAT3 serine (Ser) 727 phosphorylation ([26]; 1–5 μmol/L, PDGF-BB 15 min): without affecting
STAT3 phosphorylation [26]: attenuated
PDGF-BB-induced phospho-pRb (p-pRb) [27]: significantly inhibited
glutamic pyruvic transaminase (GPT/ALT, soluble) level [28, 34]: no alterations
glutamic-oxaloacetic transaminase 1 (GOT1/AST, soluble) level [28, 34]: no alterations
histological morphology of liver, heart, lung, and kidney ([28]; rat, 20 mg/kg orally daily): no significant changes
side effects, such as diarrhea and weight loss ([28]; rat, 20 mg/kg orally daily): did not show any side effects
cell death induction (TUNEL staining) in carotid arteries ([28]; rat, 14 days post-injury, compared with control group): no signs of cell death induction
PDGF-BB-increased STAT3 phosphorylation and nuclear translocation [29]: blocked
STAT3 dimerization [1]: inhibited
CIAPIN1 expression in the neointima region [30]: remarkably decreased
arterial intimal areas ([30]; BI + CAB vs BI): lower
circumference of the external elastic lamina (EEL) ([30]; BI + CAB vs BI): no differences
media area ([30]; BI + CAB vs BI): no differences
balloon injury-induced neointima formation ([30]; vs BI group): significantly attenuated
expression of PCNA in carotid arteries ([30]; vs BI group): significantly decreased
PDGF-BB-induced expression of KLF4 [31]: decreased

Ka, association rate constant [32]: 1002 mol⁻¹ L⁻¹ s⁻¹
Kd, dissociation rate constant [32]: 0.009083 s⁻¹
pKd ([32]; read-out: KD, equilibrium constant): 5.04
SMILES: O=[N+]([O-])c1ccc2c(c1)S(=O)(=O)C=C2 [Stattic, reference compound]
CIAPIN1 nuclear accumulation [4]: significantly reduced
PDGF-BB-induced JAK2 expression [5]: significantly inhibited
JAK2 phosphorylation [5]: significantly inhibited
PDGF-BB-induced expression of SPP1 [14]: inhibited
CDKN1B expression [18]: increased
PDGF-BB-induced CIAPIN1 expression [21]: significantly inhibited
STAT3 phosphorylation [26]: significantly inhibited
STAT3 dimerization [1]: inhibitory effect
PDGF-BB-induced expression of KLF4 [31]: inhibited

SMILES: O=C(Oc1ccc2[nH]c3ccccc3c2c1)c1ccc(O)cc1 [compound 2, 9H-Carbazol-3-yl 4-hydroxybenzoate]
PDGF-BB-stimulated VSMC proliferation [33]: significantly inhibited

SMILES: N=C(N)Nc1ccc(C(=O)Oc2ccc3[nH]c4ccccc4c3c2)cc1 [compound 3, 9H-Carbazol-3-yl 4-guanidinobenzoate]
PDGF-BB-stimulated VSMC proliferation [33]: significantly inhibited

SMILES: CC(=O)Nc1ccc(C(=O)Oc2ccc3[nH]c4ccccc4c3c2)cc1 [compound 4, 9H-Carbazol-3-yl 4-acetamidobenzoate]
PDGF-BB-stimulated VSMC proliferation [33]: significantly inhibited
